# In patent publication US20260103529A1, “Amino Acid Sequences Directed Against the Melanocortin 4 Receptor and Polypeptides Comprising the Same for the Treatment of MC4R-Related Diseases and Disorders” (Confo Therapeutics N.V., priority 2022, published 2026):
# Assays:
# Format in all cases: cell-based
# [1] = test system: moderately pigmented normal human epidermal melanocytes (NHEM-MP); assay: In vitro pigmentation assay, melanin synthesis, 2D NHEM moderately pigmented; settings: 10 days; for melanin synthesis compared to the non-stimulated control, reference compounds: 1 mM L-tyrosine, 100 μM IBMX or 10 μM NDP-MSH
# Experimental: (§1) Highly and moderately pigmented melanocytes were seeded in 24-well plates and cultured in culture medium for 24 hours. The medium was then replaced by culture medium containing or not (control) the test compounds or the reference compounds (L-tyrosine at 1 mM, IBMX at 100 and 200 μM and NDP-MSH at 10 μM). The cells were then incubated for 10 days with treatment renewal at day 3 and day 7. All experimental conditions were performed in n=3. At the end of the incubation time, the culture supernatants were removed, and melanin was extracted by cell lysis using a 0.5 N NaOH solution. The optical density (OD) of each experimental point was measured at 405 nm and melanin quantity was determined according to melanin standard curve (standard curve ranging from 0.39 to 100 μg/ml). The results were expressed in μg/ml of melanin. […] NHEM-HP response to L-tyrosine and NDP-MSH was stronger than in NHEM-MP while IBMX induced a stronger response in the NHEM-MP.
# [2] = test system: highly pigmented normal human epidermal melanocytes (NHEM-HP); assay: In vitro pigmentation assay, melanin synthesis, 2D NHEM highly pigmented; settings: 10 days; for melanin synthesis compared to the non-stimulated control, reference compounds: 1 mM L-tyrosine, 100 μM IBMX or 10 μM NDP-MSH
# Experimental: as §1
# [3] = test system: melanized reconstituted human epidermis (RHE/MEL/001); assay: In vitro pigmentation assay, 3D reconstituted human epidermis, dermoscopy
# Experimental: The study was carried out on melanized human epidermis (RHE/MEL/001; batch CB0521-3) in vitro reconstituted with NHEKs (Normal human epidermal keratinocytes, Lonza 00192906) isolated from foreskin of 3 neonatal Caucasian donors and NHEM-DP (Normal Human Epidermal Melanocytes-Darkly pigmented) isolated form one donor (phototype IV-V). The tissues were cultured at the air-liquid interface in Epilife medium (Fisher Scientific, MEP1500CA) containing specific supplements (with among others Human Keratinocytes Growth Factors, Fisher Scientific S0015 or SO01K) and antibiotics (Gentamycin, Fisher Scientific, 15710049). They were maintained in a humid atmosphere at 37° C. with 5% CO2.
# RHE/MEL/001 were reconstituted and cultivated at the air-liquid interface during 14 days in Epilife medium supplemented with specific growth supplements (as described in paragraph 1) in a humid atmosphere at 37° C. with CO2 5%.
# IBMX (Sigma; 15879) at 100 µM was used as tanning reference compound to validate the experiment. A DMSO control (corresponding to the solvent used to solubilize IBMX) at 0.02% (corresponding to the final concentration in DMSO found in the culture medium for the condition treated with IBMX) was planned as well. Four replicates were planned per condition (n=4).
# At the end of the 10 days treatments (at day 14), macroscopic high-resolution pictures of tissues (n=4) were taken. This was performed using the C-Cube device (Dermoscope type tool; Pixience, France) coupled to C-Cube clinical 3 software, which uses a proprietary method of colour calibration, and provides razor-sharp images of high quality and precision. The following endpoints were calculated, each one taking into account 3 values from the mode “L* a* b*” with L* reflecting the luminance/brightness (value from 0 to 100 with high values for clear skins), a* to gives an idea about the redness of the skin (value from −60 to 60 on the red/green axis) and b* to gives an idea about the yellowness of the skin (value from −60 to 60 on the blue/yellow axis): • ITA (Individual Typology Angle) characterizing the phototype, compared to a standard scale, with ITA>55° for very clear skins and ITA<−30° for black skins. • PI (Pigmentation Index) whose value is directly proportional to the skin pigmentation, with PI from 140 for clear skins to 200 for dark skins. • Colorimetric difference (score or ΔE) allows to quantify colour variation between a test condition and a reference. […]
# The two test items, hydro-soluble, were evaluated in parallel of one reference compound known to be a pigmentation inducer, namely IBMX. Their capacity to stimulate the production of melanin was evaluated by visual quantification of melanin on macroscopic high resolution pictures obtained by dermoscopy. […]
# [4] = target: T1, human wild type MC5R (Homo sapiens, UniProt P33032); assay: cAMP GloSensor assay, MC5R; settings: HEK293 cells transiently transfected with human MC5R; read-out: average signaling potency (EC50), cAMP GloSensor, MC5R
# T1 construct: expressed in transfected cells; host or cells: HEK293 / HEK 293T, pcDNA3.1(+)
# [5] = 10 μM in culture medium, 10 days, dermoscopy
# T1 sequence (P33032 whole entry): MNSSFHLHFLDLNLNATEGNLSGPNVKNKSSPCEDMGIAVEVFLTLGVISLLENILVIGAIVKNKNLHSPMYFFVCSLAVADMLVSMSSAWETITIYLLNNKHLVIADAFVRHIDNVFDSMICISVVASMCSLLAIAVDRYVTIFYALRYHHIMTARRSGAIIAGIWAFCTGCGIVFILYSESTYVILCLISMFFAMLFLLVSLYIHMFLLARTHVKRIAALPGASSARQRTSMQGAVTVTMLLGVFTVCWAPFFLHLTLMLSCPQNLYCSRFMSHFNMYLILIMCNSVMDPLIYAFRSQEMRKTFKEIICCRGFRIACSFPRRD
compound,measurement,setting,value
Setmelanotide acetate [reference compound],modulation of melanin synthesis,[1],did not modulate
same,melanin synthesis,[2]; 10 μM,130 % of the control
same,Individual typology angle (ITA),[3]; [5],significantly modulated
same,pigmentation index (PI),[3]; [5],significantly modulated
same,"visual colorimetric difference (score, ΔE)",[3]; [5],significantly modulated
same,effect on epidermis pigmentation (conclusion of dermoscopy analysis),"[3]; 10 μM, human epidermis in culture",has a tanning effect
N[C@@H](Cc1ccc(O)cc1)C(=O)O [L-tyrosine],"melanin synthesis compared to the non-stimulated control, reference compounds",[1],induced a stimulation of melanin synthesis
same,"melanin synthesis compared to the non-stimulated control, reference compounds",[2],induced a stimulation of melanin synthesis
"CC(=O)N[C@@H](CCCNC(=N)N)C(=O)N[C@H]1CSSC[C@@H](C(N)=O)NC(=O)[C@H](Cc2c[nH]c3ccccc23)NC(=O)[C@H](CCCNC(=N)N)NC(=O)[C@@H](Cc2ccccc2)NC(=O)[C@H](Cc2c[nH]cn2)NC(=O)[C@@H](C)NC1=O [setmelanotide, reference compound]",EC50,[4],451 ± 143 nM
CC(C)Cn1c(=O)n(C)c(=O)c2[nH]cnc21 [IBMX],"melanin synthesis compared to the non-stimulated control, reference compounds",[1],induced a stimulation of melanin synthesis
same,"melanin synthesis compared to the non-stimulated control, reference compounds",[2],induced a stimulation of melanin synthesis
NDP-MSH,"melanin synthesis compared to the non-stimulated control, reference compounds",[1],induced a stimulation of melanin synthesis
same,"melanin synthesis compared to the non-stimulated control, reference compounds",[2],induced a stimulation of melanin synthesis
